Key:
Format in all cases: binding
Details in all cases: Compound Concentration 10 µM
panel of 442 kinases [1] = target: T1, panel of 442 kinases (Homo sapiens, UniProt P53350)
T1 construct: purchased KINOMEscan
Description: (§1) We assessed the selectivity of members of this scaffold using the KINOMEscan methodology across a near comprehensive panel of 442 kinases [[18,27]].

panel of 442 kinases [2] = target: T2, panel of 442 kinases (Homo sapiens, UniProt Q00537)
T2 construct: purchased KINOMEscan
Description: as §1

panel of 442 kinases [3] = target: T3, panel of 442 kinases (Homo sapiens, UniProt P07949, V804L)
T3 construct: purchased KINOMEscan
Description: as §1

panel of 442 kinases [4] = target: T4, panel of 442 kinases (Homo sapiens, UniProt P07332)
T4 construct: purchased KINOMEscan
Description: as §1

T4 sequence (P07332 whole entry): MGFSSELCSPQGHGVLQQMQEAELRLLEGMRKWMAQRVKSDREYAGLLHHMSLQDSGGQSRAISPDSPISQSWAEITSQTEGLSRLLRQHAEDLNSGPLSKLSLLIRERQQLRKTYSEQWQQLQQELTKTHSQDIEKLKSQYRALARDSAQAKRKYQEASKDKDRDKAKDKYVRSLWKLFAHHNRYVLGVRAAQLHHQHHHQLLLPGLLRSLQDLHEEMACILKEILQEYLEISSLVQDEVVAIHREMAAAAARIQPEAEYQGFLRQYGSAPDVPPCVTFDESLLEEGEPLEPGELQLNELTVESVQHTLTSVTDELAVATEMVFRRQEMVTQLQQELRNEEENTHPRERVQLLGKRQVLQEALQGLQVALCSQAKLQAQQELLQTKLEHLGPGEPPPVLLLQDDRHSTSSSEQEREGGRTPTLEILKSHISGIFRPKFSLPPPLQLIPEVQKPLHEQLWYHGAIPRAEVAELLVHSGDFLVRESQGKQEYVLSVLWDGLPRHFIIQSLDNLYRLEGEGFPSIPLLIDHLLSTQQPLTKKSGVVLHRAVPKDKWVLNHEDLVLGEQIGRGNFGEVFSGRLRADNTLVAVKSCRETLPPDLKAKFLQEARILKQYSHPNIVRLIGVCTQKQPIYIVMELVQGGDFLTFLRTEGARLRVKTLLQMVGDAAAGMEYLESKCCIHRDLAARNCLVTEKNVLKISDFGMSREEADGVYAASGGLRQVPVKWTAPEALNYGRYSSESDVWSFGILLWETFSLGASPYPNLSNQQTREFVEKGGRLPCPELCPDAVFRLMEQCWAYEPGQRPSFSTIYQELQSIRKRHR
T3 sequence (P07949 29-1114 V804L): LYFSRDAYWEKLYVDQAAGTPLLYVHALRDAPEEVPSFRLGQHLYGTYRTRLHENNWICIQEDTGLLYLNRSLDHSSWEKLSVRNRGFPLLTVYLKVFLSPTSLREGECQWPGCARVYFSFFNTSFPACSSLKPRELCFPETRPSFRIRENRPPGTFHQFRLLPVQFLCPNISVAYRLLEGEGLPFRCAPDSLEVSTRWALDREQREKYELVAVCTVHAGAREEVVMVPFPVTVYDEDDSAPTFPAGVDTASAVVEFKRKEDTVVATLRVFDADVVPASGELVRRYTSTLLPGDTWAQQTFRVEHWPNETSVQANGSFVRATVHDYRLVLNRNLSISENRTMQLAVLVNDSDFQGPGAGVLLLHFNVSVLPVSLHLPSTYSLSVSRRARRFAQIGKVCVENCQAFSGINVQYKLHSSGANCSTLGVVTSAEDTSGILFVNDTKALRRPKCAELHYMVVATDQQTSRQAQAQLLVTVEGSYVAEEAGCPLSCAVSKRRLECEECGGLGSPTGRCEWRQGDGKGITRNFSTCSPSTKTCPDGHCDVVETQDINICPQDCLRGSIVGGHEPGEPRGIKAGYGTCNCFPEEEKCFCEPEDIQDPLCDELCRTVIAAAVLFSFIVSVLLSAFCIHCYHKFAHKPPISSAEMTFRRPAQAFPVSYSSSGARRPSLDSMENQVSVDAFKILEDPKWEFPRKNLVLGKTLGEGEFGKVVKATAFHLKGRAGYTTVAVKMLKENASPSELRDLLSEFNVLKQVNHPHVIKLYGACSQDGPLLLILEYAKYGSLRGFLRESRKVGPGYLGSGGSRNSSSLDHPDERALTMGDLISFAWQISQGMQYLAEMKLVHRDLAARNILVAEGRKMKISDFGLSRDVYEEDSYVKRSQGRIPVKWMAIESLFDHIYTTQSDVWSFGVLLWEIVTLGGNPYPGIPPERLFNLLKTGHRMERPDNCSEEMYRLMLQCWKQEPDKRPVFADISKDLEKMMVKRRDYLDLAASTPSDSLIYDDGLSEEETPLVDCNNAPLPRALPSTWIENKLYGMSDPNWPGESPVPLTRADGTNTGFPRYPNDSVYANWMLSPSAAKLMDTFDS
T1 sequence (P53350 whole entry): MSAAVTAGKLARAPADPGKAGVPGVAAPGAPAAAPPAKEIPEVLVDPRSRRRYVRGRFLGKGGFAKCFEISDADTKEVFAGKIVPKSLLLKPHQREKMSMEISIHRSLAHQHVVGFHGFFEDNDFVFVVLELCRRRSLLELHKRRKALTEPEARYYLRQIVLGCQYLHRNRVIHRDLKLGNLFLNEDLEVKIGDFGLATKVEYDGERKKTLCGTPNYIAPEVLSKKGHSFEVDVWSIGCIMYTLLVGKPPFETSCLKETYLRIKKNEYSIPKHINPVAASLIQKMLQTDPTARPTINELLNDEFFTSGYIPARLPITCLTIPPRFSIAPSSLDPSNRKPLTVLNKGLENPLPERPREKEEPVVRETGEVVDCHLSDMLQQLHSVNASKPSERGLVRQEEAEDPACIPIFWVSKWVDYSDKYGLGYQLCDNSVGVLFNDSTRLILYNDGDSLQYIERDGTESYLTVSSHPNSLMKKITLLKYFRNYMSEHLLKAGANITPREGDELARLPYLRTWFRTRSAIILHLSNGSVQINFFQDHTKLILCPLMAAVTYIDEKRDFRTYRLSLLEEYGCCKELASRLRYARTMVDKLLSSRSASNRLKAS
T2 sequence (Q00537 whole entry): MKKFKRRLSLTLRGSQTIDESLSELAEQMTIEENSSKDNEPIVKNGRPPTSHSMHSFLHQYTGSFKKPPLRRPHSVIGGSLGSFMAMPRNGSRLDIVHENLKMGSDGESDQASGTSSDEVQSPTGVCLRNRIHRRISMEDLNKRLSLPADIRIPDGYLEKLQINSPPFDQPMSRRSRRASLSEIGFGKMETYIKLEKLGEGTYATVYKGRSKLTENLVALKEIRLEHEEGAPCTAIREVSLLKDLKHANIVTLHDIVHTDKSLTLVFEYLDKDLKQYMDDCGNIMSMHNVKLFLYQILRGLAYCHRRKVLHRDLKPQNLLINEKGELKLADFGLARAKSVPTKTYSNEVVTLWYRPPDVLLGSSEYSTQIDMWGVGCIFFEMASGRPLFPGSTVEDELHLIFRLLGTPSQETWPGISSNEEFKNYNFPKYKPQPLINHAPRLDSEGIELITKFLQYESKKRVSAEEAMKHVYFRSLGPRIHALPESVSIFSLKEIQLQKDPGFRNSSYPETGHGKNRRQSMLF

| SMILES | KINOMEscan: PLK1 (panel of 442 kinases [1]) | KINOMEscan: PCTK2 (panel of 442 kinases [2]) | KINOMEscan: RET(V804L) (panel of 442 kinases [3]) | KINOMEscan: FES (panel of 442 kinases [4]) |
| --- | --- | --- | --- | --- |
| COc1cc(C(=O)N2CCC(N3CCN(C)CC3)CC2)ccc1Nc1ncc2c(n1)N1CCc3cccc(c31)C(=O)N2C [Compound 24] | 0.2 | 95 | 77 | – |
| CCOc1cc(C(=O)N2CCC(N3CCN(C)CC3)CC2)ccc1Nc1ncc2c(n1)N(C1CCCC1)c1ccccc1C(=O)N2C [Compound 26] | 95 | 100 | 100 | 100 |
| COc1cc(C(=O)N2CCC(N3CCN(C)CC3)CC2)ccc1Nc1ncc2c(n1)N(C1CCCC1)c1ccccc1C(=O)N2C [Compound 25, 11-cyclopentyl-2-((2-methoxy-4-(4-(4-methylpiperazin-1-yl)piperidine-1-carbonyl)phenyl)amino)-5-methyl-5H-benzo[e]pyrimido[5,4-b][1,4]diazepin-6(11H)-one] | 43 | 80 | 100 | 89 |
| COc1cc(C(=O)N2CCC(N3CCN(C)CC3)CC2)ccc1Nc1ncc2c(n1)N(C)c1ccccc1C(=O)N2C [15 (LRRK2-IN-1)] | 0.7 | 83 | 89 | 84 |

— publication PMC3914206
